Measurements published in US9120770B2, “Substituted pyridine and pyrazine compounds as PDE4 inhibitors” (DART NEUROSCIENCE (CAYMAN) LTD., priority 2013, dated 2015).

Molecular target: PDE4D3 (Homo sapiens, UniProt Q08499)
Sequence (Q08499 1-673 isoform Q08499-2): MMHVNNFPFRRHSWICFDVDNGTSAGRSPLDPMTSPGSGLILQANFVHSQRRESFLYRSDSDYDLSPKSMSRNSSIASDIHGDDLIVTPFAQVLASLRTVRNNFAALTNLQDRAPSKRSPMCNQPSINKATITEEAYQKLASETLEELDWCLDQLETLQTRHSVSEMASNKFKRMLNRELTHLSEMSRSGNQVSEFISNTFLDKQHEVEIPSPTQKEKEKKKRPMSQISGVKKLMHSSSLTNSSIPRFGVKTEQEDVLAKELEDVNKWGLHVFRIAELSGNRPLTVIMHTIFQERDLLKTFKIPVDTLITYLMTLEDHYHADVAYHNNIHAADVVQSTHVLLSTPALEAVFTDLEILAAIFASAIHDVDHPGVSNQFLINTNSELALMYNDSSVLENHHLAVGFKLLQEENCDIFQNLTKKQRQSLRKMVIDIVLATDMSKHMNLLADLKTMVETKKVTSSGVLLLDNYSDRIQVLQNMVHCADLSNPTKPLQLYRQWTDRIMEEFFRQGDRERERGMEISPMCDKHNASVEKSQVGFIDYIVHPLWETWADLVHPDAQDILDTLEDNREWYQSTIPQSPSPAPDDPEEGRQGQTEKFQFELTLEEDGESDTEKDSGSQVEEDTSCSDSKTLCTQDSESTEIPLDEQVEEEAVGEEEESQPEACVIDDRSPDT

Row | SMILES | EC50 [µM]
1 | COc1ncc(Cc2ccc(F)cc2)cc1-c1cccc(Cl)c1 [Example 88, 3-(3-Chlorophenyl)-5-[(4-fluorophenyl)methyl]-2-methoxypyridine] | 0.1 to 1
2 | COc1ncc(Cc2cnc(NC3CC3)nc2)cc1-c1cccc(Cl)c1 [Example 82, 5-{[5-(3-Chlorophenyl)-6-methoxypyridin-3-yl]methyl}-N-cyclopropylpyrimidin-2-amine] | < 0.1
3 | FC(F)Oc1ncc(Cc2cncs2)cc1-c1cccc(Cl)c1 [Example 68, 3-(3-Chlorophenyl)-2-(difluoromethoxy)-5-(1,3-thiazol-5-ylmethyl)pyridine] | < 0.1
4 | COc1ncc(Cn2cc([N+](=O)[O-])cn2)nc1-c1cccc(Cl)c1 [Example 181, 3-(3-Chlorophenyl)-2-methoxy-5-[(4-nitro-1H-pyrazol-1-yl)methyl]pyrazine] | 1 to 10
5 | COc1ncc(Cc2ccc(N(C)C)nc2)cc1-c1cccc(Cl)c1 [Example 34, 5-{[5-(3-Chlorophenyl)-6-methoxypyridin-3-yl]methyl}-N,N-dimethylpyridin-2-amine] | 0.1 to 1
6 | COc1ncc(Cn2cncn2)cc1-c1cc(F)cc(F)c1 [Example 139, 3-(3,5-Difluorophenyl)-2-methoxy-5-(1H-1,2,4-triazol-1-ylmethyl)pyridine] | 0.1 to 1
7 | COc1ncc(Cn2cncn2)cc1-c1cccc(C)c1 [Example 5, 2-Methoxy-3-(3-methylphenyl)-5-(1H-1,2,4-triazol-1-ylmethyl)pyridine] | 0.1 to 1
8 | COc1ncc(Cn2cccn2)cc1-c1cccc(Cl)c1 [Example 145, 3-(3-Chlorophenyl)-2-methoxy-5-(1H-pyrazol-1-ylmethyl)pyridine] | < 0.1
9 | CCOc1ncc(Cn2cnc(C(F)(F)F)n2)cc1-c1cccc(Cl)c1 [Example 152, 3-(3-Chlorophenyl)-2-ethoxy-5-{[3-(trifluoromethyl)-1H-1,2,4-triazol-1-yl]methyl}pyridine] | 0.1 to 1
10 | CCOc1ncc(Cn2ncnc2C(F)(F)F)cc1-c1cccc(OC(F)F)c1 [Example 164, 3-[3-(Difluoromethoxy)phenyl]-2-ethoxy-5-{[5-(trifluoromethyl)-1H-1,2,4-triazol-1-yl]methyl}pyridine] | 0.1 to 1
11 | Cc1ccc(Cc2cnc(OC(F)F)c(-c3cccc(Cl)c3)c2)cn1 [Example 72, 3-(3-Chlorophenyl)-2-(difluoromethoxy)-5-[(6-methylpyridin-3-yl)methyl]pyridine] | < 0.1
12 | COc1ncc(Cn2cnc(C(C)(C)O)n2)cc1-c1cccc(Cl)c1 [Example 247, 2-(1-{[5-(3-Chlorophenyl)-6-methoxypyridin-3-yl]methyl}-1H-1,2,4-triazol-3-yl)propan-2-ol] | 1 to 10
13 | CCOc1ncc(Cn2ncnc2C(F)(F)F)cc1-c1cccc(Cl)c1 [Example 153, 3-(3-Chlorophenyl)-2-ethoxy-5-{[5-(trifluoromethyl)-1H-1,2,4-triazol-1-yl]methyl}pyridine] | < 0.1
14 | COc1ncc(Cc2ccnc(C(N)=O)c2)cc1-c1cccc(Cl)c1 [Example 63, 4-{[5-(3-Chlorophenyl)-6-methoxypyridin-3-yl]methyl}pyridine-2-carboxamide] | 1 to 10
15 | COc1ncc(Cn2cncn2)cc1-c1cccc(C#N)c1 [Example 136, 3-[2-Methoxy-5-(1H-1,2,4-triazol-1-ylmethyl)pyridin-3-yl]benzonitrile] | 0.1 to 1
16 | COc1ncc(Cc2cnc(N)nc2)cc1-c1cccc(Cl)c1 [Example 25, 5-{[5-(3-Chlorophenyl)-6-methoxypyridin-3-yl]methyl}pyrimidin-2-amine] | < 0.1
17 | CNC(c1ccc(F)cc1)c1cnc(OC)c(-c2cccc(Cl)c2)c1 (centres unmarked) [Example 17, {[5-(3-Chlorophenyl)-6-methoxypyridin-3-yl](4-fluorophenyl)methyl}(methyl)amine] | 1 to 10
18 | CC(c1cnc(OC(F)F)c(-c2cccc(Cl)c2)c1)n1cncn1 (centres unmarked) [Example 150, 3-(3-Chlorophenyl)-2-(difluoromethoxy)-5-[1-(1H-1,2,4-triazol-1-yl)ethyl]pyridine] | 0.1 to 1
19 | Nc1ncc(Cc2cnc(OC(F)F)c(-c3cccc(Cl)c3)c2)s1 [Example 36, 5-{[5-(3-Chlorophenyl)-6-(difluoromethoxy)pyridin-3-yl]methyl}-1,3-thiazol-2-amine] | < 0.1
20 | COc1ncc(Cn2cc(C#N)cn2)cc1-c1cccc(Cl)c1 [Example 170, 1-{[5-(3-Chlorophenyl)-6-methoxypyridin-3-yl]methyl}-1H-pyrazole-4-carbonitrile] | 0.1 to 1
21 | COc1ncc(Cc2cnoc2)cc1-c1cccc(Cl)c1 [Example 96, 3-(3-Chlorophenyl)-2-methoxy-5-(1,2-oxazol-4-ylmethyl)pyridine] | 0.1 to 1
22 | COc1ncc(Cn2cnc(C)n2)cc1-c1cccc(Cl)c1 [Example 143, 3-(3-Chlorophenyl)-2-methoxy-5-[(3-methyl-1H-1,2,4-triazol-1-yl)methyl]pyridine] | < 0.1

Row | SMILES | EC50 [µM]
23 | COc1ncc(Cn2cc(CO)nn2)nc1-c1cccc(Cl)c1 [Example 266, (1-{[6-(3-Chlorophenyl)-5-methoxypyrazin-2-yl]methyl}-1H-1,2,3-triazol-4-yl)methanol] | 0.1 to 1
24 | FC(F)Oc1ncc(Cc2cnc(NCC(F)(F)F)nc2)cc1-c1cccc(Cl)c1 [Example 94, 5-{[5-(3-Chlorophenyl)-6-(difluoromethoxy)pyridin-3-yl]methyl}-N-(2,2,2-trifluoroethyl)pyrimidin-2-amine] | 0.1 to 1
25 | CCOc1ncc(Cn2cnc(N)n2)cc1-c1cccc(OC(F)F)c1 [Example 226, 1-({5-[3-(Difluoromethoxy)phenyl]-6-ethoxypyridin-3-yl}methyl)-1H-1,2,4-triazol-3-amine] | < 0.1
26 | COc1ncc(Cn2cc(NC(C)=O)cn2)cc1-c1cccc(Cl)c1 [Example 172, N-(1-{[5-(3-Chlorophenyl)-6-methoxypyridin-3-yl]methyl}-1H-pyrazol-4-yl)acetamide] | 1 to 10
27 | CCOc1ncc(Cc2cnc(C(N)=O)nc2)cc1-c1ccnc(OC(F)F)c1 [Example 122, 5-({5-[2-(Difluoromethoxy)pyridin-4-yl]-6-ethoxypyridin-3-yl}methyl)pyrimidine-2-carboxamide] | < 0.1
28 | COc1ncc(Cc2cnc(N)nc2)nc1-c1cccc(OC(F)F)c1 [Example 106, 5-({6-[3-(Difluoromethoxy)phenyl]-5-methoxypyrazin-2-yl}methyl)pyrimidin-2-amine] | < 0.1
29 | COc1ncc(Cc2cnc(OC)c(-c3cccc(Cl)c3)c2)cn1 [Example 76, 5-{[5-(3-Chlorophenyl)-6-methoxypyridin-3-yl]methyl}-2-methoxypyrimidine] | < 0.1
30 | COc1ncc(Cc2ccnc(C#N)c2)cc1-c1cccc(Cl)c1 [Example 62, 4-{[5-(3-Chlorophenyl)-6-methoxypyridin-3-yl]methyl}pyridine-2-carbonitrile] | 1 to 10
31 | NC(=O)c1cn(Cc2cnc(OC(F)F)c(-c3cccc(Cl)c3)c2)cn1 [Example 198, 1-{[5-(3-Chlorophenyl)-6-(difluoromethoxy)pyridin-3-yl]methyl}-1H-imidazole-4-carboxamide] | 1 to 10
32 | Cc1ncc(Cc2cnc(OC(F)F)c(-c3cccc(Cl)c3)c2)s1 [Example 73, 3-(3-Chlorophenyl)-2-(difluoromethoxy)-5-[(2-methyl-1,3-thiazol-5-yl)methyl]pyridine] | < 0.1
33 | COc1ncc(Cn2ccc(N)n2)cc1-c1cccc(OC(F)F)c1 [Example 232, 1-({5-[3-(Difluoromethoxy)phenyl]-6-methoxypyridin-3-yl}methyl)-1H-pyrazol-3-amine] | < 0.1
34 | COc1ncc(Cn2cnc(CF)n2)nc1-c1cccc(Cl)c1 [Example 258, 3-(3-Chlorophenyl)-5-{[3-(fluoromethyl)-1H-1,2,4-triazol-1-yl]methyl}-2-methoxypyrazine] | 1 to 10
35 | CNc1ncc(Cc2cnc(OC(F)F)c(-c3cccc(Cl)c3)c2)cn1 [Example 93, 5-{[5-(3-Chlorophenyl)-6-(difluoromethoxy)pyridin-3-yl]methyl}-N-methylpyrimidin-2-amine] | < 0.1
36 | COc1ncc(Cc2cnc(NC(C)C)nc2)cc1-c1cccc(Cl)c1 [Example 77, 5-{[5-(3-Chlorophenyl)-6-methoxypyridin-3-yl]methyl}-N-(propan-2-yl)pyrimidin-2-amine] | 1 to 10
37 | CC(C)Oc1ncc(Cc2cnc(N)nc2)cc1-c1cccc(Cl)c1 [Example 41, 5-{[5-(3-Chlorophenyl)-6-(propan-2-yloxy)pyridin-3-yl]methyl}pyrimidin-2-amine] | 0.1 to 1
38 | COc1ncc(Cn2cncn2)cc1-c1cn[nH]c1 [Example 242, 2-Methoxy-3-(1H-pyrazol-4-yl)-5-(1H-1,2,4-triazol-1-ylmethyl)pyridine] | > 10
39 | CCOc1cccc(-c2cc(Cn3cnc(CF)n3)cnc2OC(F)F)c1 [Example 255, 2-(Difluoromethoxy)-3-(3-ethoxyphenyl)-5-{[3-(fluoromethyl)-1H-1,2,4-triazol-1-yl]methyl}pyridine] | 0.1 to 1
40 | COc1ncc(Cc2ccc(NC(N)=O)cc2)cc1-c1cccc(Cl)c1 [Example 26, (4-{[5-(3-Chlorophenyl)-6-methoxypyridin-3-yl]methyl}phenyl)urea] | 0.1 to 1
41 | CCOc1ncc(Cn2ncnc2C(=O)OC)nc1-c1cccc(OC(F)F)c1 [Example 192, Methyl 1-((6-(3-(difluoromethoxy)phenyl)-5-ethoxypyrazin-2-yl)methyl)-1H-1,2,4-triazole-5-carboxylate] | 1 to 10
42 | COc1ncc(Cn2cncn2)cc1-c1cncc(C)c1 [Example 6, 2-Methoxy-3-(5-methylpyridin-3-yl)-5-(1H-1,2,4-triazol-1-ylmethyl)pyridine] | > 10
43 | COc1ncc(Cn2cnc(C)n2)cc1-c1cccc(F)c1 [Example 151, 3-(3-Fluorophenyl)-2-methoxy-5-[(3-methyl-1H-1,2,4-triazol-1-yl)methyl]pyridine] | < 0.1
44 | COCc1ncn(Cc2cnc(OC(F)F)c(-c3cccc(Cl)c3)c2)n1 [Example 157, 3-(3-Chlorophenyl)-2-(difluoromethoxy)-5-{[3-(methoxymethyl)-1H-1,2,4-triazol-1-yl]methyl}pyridine] | 0.1 to 1
